Columns and labels:
Assay in all cases: NCI-60 panel growth inhibition
Format in all cases: cell-based
SW-620 = conditions: Homo sapiens, Colon Cancer, mutated RAS No, mutated BRAF No
Description: (§1) Table 1 summarizes KG5's effect in 60 NCI cancer cell lines: the NCI-60 panel showing the half maximal growth inhibitory concentration of KG5 and the RAS and BRAF status in 60 human cancer cell lines.

MCF7 = conditions: Homo sapiens, Breast Cancer, mutated RAS No, mutated BRAF No
Description: as §1

ACHN = conditions: Homo sapiens, Renal Cancer, mutated RAS No, mutated BRAF No
Description: as §1

OVCAR-4 = conditions: Homo sapiens, Ovarian Cancer, mutated RAS No, mutated BRAF No
Description: as §1

BT-549 = conditions: Homo sapiens, Breast Cancer, mutated RAS No, mutated BRAF No
Description: as §1

EKVX = conditions: Homo sapiens, NSC Lung Cancer, mutated RAS No, mutated BRAF No
Description: as §1

RXF 393 = conditions: Homo sapiens, Renal Cancer, mutated RAS No, mutated BRAF No
Description: as §1

MOLT-4 = conditions: Homo sapiens, Leukemia, mutated RAS Yes, mutated BRAF No
Description: as §1

HOP-62 = conditions: Homo sapiens, NSC Lung Cancer, mutated RAS Yes, mutated BRAF No
Description: as §1

HCC-2998 = conditions: Homo sapiens, Colon Cancer, mutated RAS No, mutated BRAF No
Description: as §1

CCRF-CEM = conditions: Homo sapiens, Leukemia, mutated RAS Yes, mutated BRAF No
Description: as §1

MDA-MB-468 = conditions: Homo sapiens, Breast Cancer, mutated RAS No, mutated BRAF No
Description: as §1

COLO 205 = conditions: Homo sapiens, Colon Cancer, mutated RAS Yes, mutated BRAF No
Description: as §1

SK-MEL-28 = conditions: Homo sapiens, Melanoma, mutated RAS No, mutated BRAF Yes
Description: as §1

MDA-MB-231/ATCC = conditions: Homo sapiens, Breast Cancer, mutated RAS Yes, mutated BRAF Yes
Description: as §1

A549/ATCC = conditions: Homo sapiens, NSC Lung Cancer, mutated RAS Yes, mutated BRAF No
Description: as §1

K-562 = conditions: Homo sapiens, K562; Leukemia; mutated RAS No; mutated BRAF No
Description: as §1

SF-268 = conditions: Homo sapiens, CNS Cancer, mutated RAS No, mutated BRAF No
Description: as §1

UACC-257 = conditions: Homo sapiens, Melanoma, mutated RAS No, mutated BRAF Yes
Description: as §1

NCI/ADR-RES = conditions: Homo sapiens, Ovarian Cancer, mutated RAS No, mutated BRAF No
Description: as §1

NCI-H23 = conditions: Homo sapiens, NSC Lung Cancer, mutated RAS Yes, mutated BRAF No
Description: as §1

SF-295 = conditions: Homo sapiens, CNS Cancer, mutated RAS No, mutated BRAF No
Description: as §1

HS 578T = conditions: Homo sapiens, Breast Cancer, mutated RAS Yes, mutated BRAF No
Description: as §1

NCI-H460 = conditions: Homo sapiens, NSC Lung Cancer, mutated RAS Yes, mutated BRAF No
Description: as §1

SK-OV-3 = conditions: Homo sapiens, Ovarian Cancer, mutated RAS No, mutated BRAF No
Description: as §1

T-47D = conditions: Homo sapiens, T47D; Breast Cancer; mutated RAS Yes; mutated BRAF No
Description: as §1

SN12C = conditions: Homo sapiens, Renal Cancer, mutated RAS No, mutated BRAF No
Description: as §1

MALME-3M = conditions: Homo sapiens, Melanoma, mutated RAS No, mutated BRAF Yes
Description: as §1

SK-MEL-5 = conditions: Homo sapiens, Melanoma, mutated RAS No, mutated BRAF Yes
Description: as §1

A498 = conditions: Homo sapiens, Renal Cancer, mutated RAS No, mutated BRAF No
Description: as §1

NCI-H322M = conditions: Homo sapiens, NSC Lung Cancer, mutated RAS No, mutated BRAF No
Description: as §1

HT29 = conditions: Homo sapiens, HT-29; Colon Cancer; mutated RAS No; mutated BRAF Yes
Description: as §1

UACC-62 = conditions: Homo sapiens, Melanoma, mutated RAS No, mutated BRAF Yes
Description: as §1

UO-31 = conditions: Homo sapiens, Renal Cancer, mutated RAS No, mutated BRAF No
Description: as §1

MDA-MB-435 = conditions: Homo sapiens, Melanoma, mutated RAS No, mutated BRAF Yes
Description: as §1

TK-10 = conditions: Homo sapiens, Renal Cancer, mutated RAS No, mutated BRAF No
Description: as §1

U251 = conditions: Homo sapiens, U-251; CNS Cancer; mutated RAS No; mutated BRAF No
Description: as §1

HCT-116 = conditions: Homo sapiens, Colon Cancer, mutated RAS Yes
Description: as §1

`CSc1nc(N)cc(Oc2ccc(-c3nnc(Nc4cccc(C(F)(F)F)c4)[nH]3)cc2)n1` [KG5] showed a GI50 (SW-620) of 617 nM, a GI50 (MCF7) of 355 nM and a GI50 (ACHN) of 851 nM. The GI50 (OVCAR-4) was 575 nM, the GI50 (BT-549) was 708 nM and the GI50 (EKVX) was 501 nM. It also gave a GI50 (RXF 393) of 166 nM, a GI50 (MOLT-4) of 912 nM and a GI50 (HOP-62) of 589 nM. It also gave a GI50 (HCC-2998) of 1410 nM, a GI50 (CCRF-CEM) of 380 nM and a GI50 (MDA-MB-468) of 191 nM. It also gave a GI50 (COLO 205) of 407 nM, a GI50 (SK-MEL-28) of 1580 nM and a GI50 (MDA-MB-231/ATCC) of 1480 nM. The GI50 (A549/ATCC) was 501 nM, the GI50 (K-562) was 513 nM and the GI50 (SF-268) was 912 nM. It also gave a GI50 (UACC-257) of 407 nM, a GI50 (NCI/ADR-RES) of 437 nM and a GI50 (NCI-H23) of 525 nM. The GI50 (SF-295) was 427 nM, the GI50 (HS 578T) was 437 nM and the GI50 (NCI-H460) was 363 nM. It also gave a GI50 (SK-OV-3) of 562 nM, a GI50 (T-47D) of 347 nM and a GI50 (SN12C) of 912 nM. The GI50 (MALME-3M) was 316 nM, the GI50 (SK-MEL-5) was 389 nM and the GI50 (A498) was 468 nM. It also gave a GI50 (NCI-H322M) of 525 nM, a GI50 (HT29) of 363 nM and a GI50 (UACC-62) of 501 nM. It also gave a GI50 (UO-31) of 513 nM, a GI50 (MDA-MB-435) of 195 nM and a GI50 (TK-10) of 692 nM. It also gave a GI50 (U251) of 468 nM and a GI50 (HCT-116) of 457 nM.

From patent US20130266636A1, “METHODS FOR BLOCKING CELL PROLIFERATION AND TREATING DISEASES AND CONDITIONS RESPONSIVE TO CELL GROWTH INHIBITION” (THE REGENTS OF THE UNIVERSITY OF CALIFORNIA, priority 2010, published 2013)
